Measured values reported in PubChem BioAssay (NCI).
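A five-concentration, 48-hour dose response in 96-well plates underlies each endpoint, interpolated linearly between surrounding concentrations. TGI is the concentration that stops growth completely.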

Key:
Assay in all cases: DTP human tumour cell line panel, 48 h
OVCAR-4 ovarian = tested on: OVCAR-4 ovarian
KM12 colon = tested on: KM12 colon
OVCAR-5 ovarian = tested on: OVCAR-5 ovarian
SK-MEL-5 melanoma = tested on: SK-MEL-5 melanoma
SF-539 CNS = tested on: SF-539 CNS
NCI-H460 lung = tested on: NCI-H460 lung
CCRF-CEM leukemia = tested on: CCRF-CEM leukemia
UO-31 renal = tested on: UO-31 renal
A549 NSCLC = tested on: A549 NSCLC
SF-295 CNS = tested on: SF-295 CNS
SK-MEL-2 melanoma = tested on: SK-MEL-2 melanoma
EKVX NSCLC = tested on: EKVX NSCLC
BT-549 breast = tested on: BT-549 breast
NCI-H226 lung = tested on: NCI-H226 lung
TK-10 renal = tested on: TK-10 renal
HT29 colon = tested on: HT29 colon
CAKI-1 renal = tested on: CAKI-1 renal
OVCAR-3 ovarian = tested on: OVCAR-3 ovarian
A498 renal = tested on: A498 renal
HOP-62 NSCLC = tested on: HOP-62 NSCLC
MDA-N = tested on: MDA-N
RXF 393 renal = tested on: RXF 393 renal
IGROV1 ovarian = tested on: IGROV1 ovarian
HCT-15 colon = tested on: HCT-15 colon
SK-OV-3 ovarian = tested on: SK-OV-3 ovarian
786-0 renal = tested on: 786-0 renal
UACC-257 melanoma = tested on: UACC-257 melanoma
ACHN renal = tested on: ACHN renal
UACC-62 melanoma = tested on: UACC-62 melanoma
NCI/ADR-RES ovarian = tested on: NCI/ADR-RES ovarian
MDA-MB-231 breast = tested on: MDA-MB-231 breast
COLO 205 colon = tested on: COLO 205 colon
SF-268 CNS = tested on: SF-268 CNS
MCF7 breast = tested on: MCF7 breast
M14 melanoma = tested on: M14 melanoma
K-562 leukemia = tested on: K-562 leukemia
MOLT-4 leukemia = tested on: MOLT-4 leukemia
U251 CNS = tested on: U251 CNS
HCT-116 colon = tested on: HCT-116 colon
HCC-2998 colon = tested on: HCC-2998 colon
OVCAR-8 ovarian = tested on: OVCAR-8 ovarian
NCI-H23 lung = tested on: NCI-H23 lung
NCI-H522 lung = tested on: NCI-H522 lung
SN12C renal = tested on: SN12C renal
T-47D breast = tested on: T-47D breast
HS 578T breast = tested on: HS 578T breast
SR leukemia = tested on: SR leukemia
MALME-3M melanoma = tested on: MALME-3M melanoma
SNB-19 CNS = tested on: SNB-19 CNS
MDA-MB-435 = tested on: MDA-MB-435
DU-145 prostate = tested on: DU-145 prostate
PC-3 prostate = tested on: PC-3 prostate
SNB-75 CNS = tested on: SNB-75 CNS
SK-MEL-28 melanoma = tested on: SK-MEL-28 melanoma
LOX IMVI melanoma = tested on: LOX IMVI melanoma
HL-60(TB) leukemia = tested on: HL-60(TB) leukemia
SW-620 colon = tested on: SW-620 colon
RPMI-8226 leukemia = tested on: RPMI-8226 leukemia

Clc1ccc(CNc2nc(Cl)c3[nH]cnc3n2)cc1Cl
TGI (OVCAR-4 ovarian): > 100 µM
TGI (KM12 colon): > 100 µM
TGI (OVCAR-5 ovarian): > 100 µM
TGI (SK-MEL-5 melanoma): 37.4 µM
TGI (SF-539 CNS): 45.2 µM
TGI (NCI-H460 lung): 73.3 µM
TGI (CCRF-CEM leukemia): > 100 µM
TGI (UO-31 renal): 60 µM
TGI (A549 NSCLC): > 100 µM
TGI (SF-295 CNS): > 100 µM
TGI (SK-MEL-2 melanoma): 77.9 µM
TGI (EKVX NSCLC): > 100 µM
TGI (BT-549 breast): 84.5 µM
TGI (NCI-H226 lung): 78.9 µM
TGI (TK-10 renal): 84.7 µM
TGI (HT29 colon): 83.4 µM
TGI (CAKI-1 renal): 79.9 µM
TGI (OVCAR-3 ovarian): > 100 µM
TGI (A498 renal): 45.4 µM
TGI (HOP-62 NSCLC): 89.2 µM
TGI (MDA-N): > 100 µM
TGI (RXF 393 renal): > 100 µM
TGI (IGROV1 ovarian): > 100 µM
TGI (HCT-15 colon): > 100 µM
TGI (SK-OV-3 ovarian): 85.5 µM
TGI (786-0 renal): > 100 µM
TGI (UACC-257 melanoma): 48.9 µM
TGI (ACHN renal): > 100 µM
TGI (UACC-62 melanoma): > 100 µM
TGI (NCI/ADR-RES ovarian): 69.6 µM
TGI (MDA-MB-231 breast): > 100 µM
TGI (COLO 205 colon): 51.8 µM
TGI (SF-268 CNS): 81.8 µM
TGI (MCF7 breast): 84.5 µM
TGI (M14 melanoma): 70.3 µM
TGI (K-562 leukemia): > 100 µM
TGI (MOLT-4 leukemia): > 100 µM
TGI (U251 CNS): > 100 µM
TGI (HCT-116 colon): 60.7 µM
TGI (HCC-2998 colon): 53.2 µM
TGI (OVCAR-8 ovarian): 99.2 µM
TGI (NCI-H23 lung): > 100 µM
TGI (NCI-H522 lung): 34.4 µM
TGI (SN12C renal): > 100 µM
TGI (T-47D breast): 51.3 µM
TGI (HS 578T breast): 50.8 µM
TGI (SR leukemia): 77.6 µM
TGI (MALME-3M melanoma): > 100 µM
TGI (SNB-19 CNS): > 100 µM
TGI (MDA-MB-435): > 100 µM
TGI (DU-145 prostate): > 100 µM
TGI (PC-3 prostate): > 100 µM
TGI (SNB-75 CNS): > 100 µM

CC(C)OP(=O)(OC(C)C)c1ccc2c(c1)OCCOCCOCCOCCO2
TGI (KM12 colon): > 100 µM
TGI (SK-MEL-5 melanoma): > 100 µM
TGI (SF-539 CNS): > 100 µM
TGI (NCI-H460 lung): > 100 µM
TGI (SK-MEL-28 melanoma): > 100 µM
TGI (CCRF-CEM leukemia): > 100 µM
TGI (UO-31 renal): > 100 µM
TGI (A549 NSCLC): > 100 µM
TGI (SF-295 CNS): > 100 µM
TGI (EKVX NSCLC): > 100 µM
TGI (BT-549 breast): > 100 µM
TGI (NCI-H226 lung): > 100 µM
TGI (TK-10 renal): > 100 µM
TGI (HT29 colon): > 100 µM
TGI (CAKI-1 renal): > 100 µM
TGI (A498 renal): > 100 µM
TGI (HOP-62 NSCLC): > 100 µM
TGI (MDA-N): > 100 µM
TGI (IGROV1 ovarian): > 100 µM
TGI (HCT-15 colon): > 100 µM
TGI (SK-OV-3 ovarian): > 100 µM
TGI (786-0 renal): > 100 µM
TGI (UACC-257 melanoma): > 100 µM
TGI (ACHN renal): > 100 µM
TGI (UACC-62 melanoma): > 100 µM
TGI (LOX IMVI melanoma): > 100 µM
TGI (MDA-MB-231 breast): > 100 µM
TGI (COLO 205 colon): > 100 µM
TGI (SF-268 CNS): > 100 µM
TGI (MCF7 breast): > 100 µM
TGI (HL-60(TB) leukemia): > 100 µM
TGI (M14 melanoma): > 100 µM
TGI (SW-620 colon): > 100 µM
TGI (K-562 leukemia): > 100 µM
TGI (MOLT-4 leukemia): > 100 µM
TGI (HCT-116 colon): > 100 µM
TGI (HCC-2998 colon): > 100 µM
TGI (OVCAR-8 ovarian): > 100 µM
TGI (NCI-H23 lung): > 100 µM
TGI (NCI-H522 lung): > 100 µM
TGI (SN12C renal): > 100 µM
TGI (T-47D breast): > 100 µM
TGI (HS 578T breast): > 100 µM
TGI (SR leukemia): > 100 µM
TGI (RPMI-8226 leukemia): > 100 µM
TGI (MALME-3M melanoma): > 100 µM
TGI (SNB-19 CNS): > 100 µM
TGI (MDA-MB-435): > 100 µM
TGI (DU-145 prostate): > 100 µM
TGI (PC-3 prostate): > 100 µM
TGI (SNB-75 CNS): > 100 µM
